Like-named read-outs stand apart in the source and are kept apart here.
Assays:
[1] = molecular target: SaSiaT (Staphylococcus aureus, UniProt A0A0H2XJ46); assay: Isothermal titration calorimetry, SaSiaT; format: binding
Experimental: The binding thermodynamic analysis performed via isothermal titration calorimetry (ITC) provides insights into dissociation constants (Kd) and the binding driving forces of compounds 3a, 3e, and 3f with PmSiaT and SaSiaT.
Isothermal titration calorimetric experiments were performed on an ITC200 instrument (MicroCal, Northampton, USA) at 25 °C using standard instrument settings (reference power of 6 μcal s^–1, stirring speed of 750 rpm, feedback mode high, and filter period of 2 s). Protein solutions were dialyzed against ITC buffer (50 mM Tris–HCl, 150 mM NaCl, with 0.0174% (w/v) DDM, pH 8.0 at 5 °C) prior to the experiments, and all the samples were prepared using the dialysate buffer to minimize dilution effects. Protein concentrations were determined spectrophotometrically with the specific absorbance at 280 nm employing an extinction coefficient of 76,445 mol^–1 cm^–1 for PmSiaT and 75,750 M^–1 cm^–1 for SaSiaT. […] In a typical experiment, a 0.3–1.0 mM inhibitor solution was titrated to a solution containing 30–50 μM of PmSiaT or 13–20 μM of SaSiaT to ensure >90% saturation. Baseline correction, peak integration, and nonlinear regression analysis of experimental data were performed using the NITPIC (version 1.2.2.)[41] and SEDPHAT (version 12.1b)[42] software packages. The stoichiometry parameter was manually constrained to a value of 1. Experiments were performed in triplicate and the 68% confidence intervals from global fitting of three experiments were calculated as an estimate of the experimental error. All the titration curves can be found in Figures S10–S15.

[2] = molecular target: T1, PmSiaT (Proteus mirabilis, UniProt B4EZY7); assay: [3H]Neu5Ac efflux in proteoliposomes, PmSiaT; format: biochemical; conditions: 0.1 mM external compound
T1 construct: made in house
T1 sequence (B4EZY7 1-496): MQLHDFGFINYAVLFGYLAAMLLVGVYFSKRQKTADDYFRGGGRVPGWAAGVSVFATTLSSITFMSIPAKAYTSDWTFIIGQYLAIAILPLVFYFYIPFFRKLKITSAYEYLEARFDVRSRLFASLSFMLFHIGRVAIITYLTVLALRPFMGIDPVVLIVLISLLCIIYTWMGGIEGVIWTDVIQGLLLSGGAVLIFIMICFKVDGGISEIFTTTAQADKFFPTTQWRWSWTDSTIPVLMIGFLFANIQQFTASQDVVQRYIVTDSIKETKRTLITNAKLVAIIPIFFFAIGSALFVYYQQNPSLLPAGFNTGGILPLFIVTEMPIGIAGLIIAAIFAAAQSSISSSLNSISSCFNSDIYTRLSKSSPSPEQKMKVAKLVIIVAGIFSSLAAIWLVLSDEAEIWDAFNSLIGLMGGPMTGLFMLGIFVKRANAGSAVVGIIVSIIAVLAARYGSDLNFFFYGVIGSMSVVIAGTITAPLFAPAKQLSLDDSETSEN
Experimental: Figure 5 Kinetic analysis of the inhibition of recombinant SiaT from P. mirabilis (A,B) and S. aureus (C,D) reconstituted in proteoliposomes and [^3H]Neu5Ac efflux in proteoliposomes (E,F). (a–d) Data were plotted according to Lineweaver–Burk as a reciprocal transport rate vs reciprocal Neu5Ac concentration. The transport rate was measured, in 5 min, by adding [^3H] Neu5Ac at the indicated concentrations to proteoliposomes containing 20 mM K^+-gluconate in the presence of valinomycin as described in the Supporting Information. [(A,B) P. mirabilis SiaT]; (A) compound 3f 0.25 μM (●) or 0.75 μM (□) was added in comparison to samples without inhibitor (○). (B) Compound 3e 12 μM (●) or 40 μM (□) was added in comparison to samples without an inhibitor (○). [(C,D) S. aureus SiaT]. (C) Compound 3f 80 μM (●) or 200 μM (□) was added in comparison to samples without an inhibitor (○). (D) Compound 3e 5 μM (●) or 12 μM (□) was added in comparison to samples without an inhibitor (○). Results are mean ± s.d. from four independent experiments (n = 4). […] Data are calculated as the percent of residual activity with respect to the control sample (efflux time zero). The results are the means ± s.d. of three independent experiments. […]
For uptake experiments, 600 μL of proteoliposomes were loaded onto a Sephadex G-75 column (0.7 cm diameter × 15 cm height), pre-equilibrated with 20 mM Hepes Tris pH 7.0 with 40 mM sucrose to balance the internal osmolarity. […] For kinetic measurement, the initial transport rate was measured by stopping the reaction after 5 min, that is, within the initial linear range of [^3H]-Neu5Ac uptake into the proteoliposomes previously described. […] In both uptake and efflux experiments, the transport assay was terminated by loading each proteoliposome sample (100 μL) on a Sephadex G-75 column (0.6 cm diameter × 8 cm height) to remove the external radioactivity. Proteoliposomes were eluted with 1 mL of 50 mM NaCl and collected in a 4 mL of scintillation mixture, vortexed and counted. […]

[3] = Plasma-protein binding by RED, human; format: in vitro ADME; conditions: pH 7.2, read-out: Plasma-protein binding by RED (% unbound compound, average n=2)
Experimental: The assay was run in a deep well plate containing RED inserts with semipermeable dialysis membranes. The reaction was started by adding the compounds to a blank plasma in a 5 μM concentration. Opposite to the blank plasma was a compartment containing isotonic sodium–phosphate buffer (pH 7.2) separated from the plasma by the membrane. The plate was equilibrated in a water bath at 37 °C for 4 h. Samples from both the plasma and the buffer side were matrix compensated before protein precipitation. The samples were centrifuged, and the supernatants were diluted and analyzed by LC–MS/MS to determine the % unbound compound. Two incubations per compound per species.

[4] = ITC, 25 °C, read-out: SaSiaT Kd

Sequence of SaSiaT (A0A0H2XJ46 entry or part of it): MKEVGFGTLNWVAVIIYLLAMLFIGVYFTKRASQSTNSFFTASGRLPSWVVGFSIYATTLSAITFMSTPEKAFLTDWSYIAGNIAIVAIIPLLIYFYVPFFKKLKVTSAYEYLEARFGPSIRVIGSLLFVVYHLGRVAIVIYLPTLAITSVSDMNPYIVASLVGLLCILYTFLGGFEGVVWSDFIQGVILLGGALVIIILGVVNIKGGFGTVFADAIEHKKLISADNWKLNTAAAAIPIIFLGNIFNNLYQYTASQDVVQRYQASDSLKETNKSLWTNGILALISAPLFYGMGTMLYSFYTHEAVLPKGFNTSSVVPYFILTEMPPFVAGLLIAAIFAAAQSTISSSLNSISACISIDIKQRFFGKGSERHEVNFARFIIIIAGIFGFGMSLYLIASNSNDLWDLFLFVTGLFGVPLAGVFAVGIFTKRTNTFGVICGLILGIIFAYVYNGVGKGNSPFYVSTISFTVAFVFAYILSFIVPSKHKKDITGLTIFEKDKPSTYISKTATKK

SMILES	Kd [1] [µM]	SaSiaT -TΔS° ([1]; ITC) [kcal/mol]	SaSiaT ΔG° ([1]; ITC) [kcal/mol]	SaSiaT ΔH° ([1]; ITC) [kcal/mol]	[3H]Neu5Ac efflux induced [2]	fraction unbound at 4 h, 5 μM [3]	Kd [1, 4] [µM]	affinity increase for SaSiaT ([1]; compared to Neu5Ac) [fold]
CC(=O)N[C@H]1[C@H]([C@H](O)[C@H](O)CO)OC(O)(C(=O)O)C[C@@H]1O (some centres unmarked) [Neu5Ac, 5-N-acetyl neuraminic acid, reference compound]	130 ± 35	-14.7	-5.31	9.37	slow but measurable counter flow			
CC(=O)NC1C(OCc2cc(F)cc(F)c2)CC(O)(C(=O)O)OC1C(O)C(O)CO (centres unmarked) [Compound 3e]		-16.5	-7.36	9.15	did not cause any [^3H]Neu5Ac efflux	0.74	4.1 ± 2.1	31
CC(=O)NC1C(OCc2cc(Br)cc(Br)c2)CC(O)(C(=O)O)OC1C(O)C(O)CO (centres unmarked) [Compound 3f]		-13.1	-6.55	6.57	did not cause any [^3H]Neu5Ac efflux	0.27	15.7 ± 7.3	
CC(=O)NC1C(OCc2ccccc2)CC(O)(C(=O)O)OC1C(O)C(O)CO (centres unmarked) [Compound 3a]		-16	-6.91	9.08		0.85	8.8 ± 2.7	

Reference: publication PMC9295122, “Sialic Acid Derivatives Inhibit SiaT Transporters and Delay Bacterial Growth” (ACS Chemical Biology, 2022)
